Reference: patent US20250352528A1, “TOPICAL ROSIGLITAZONE FOR RADIATION-INDUCED SKIN INJURY” (The Brigham and Women's Hospital, Inc., priority 2022, published 2025)

How the values were obtained:
[1] = systemic rosiglitazone [Ref. 20,21]; cited from earlier work
[2] = test system: PDGFRα+ cells; experiment: Flow cytometry of hindlimb skin after lymphadenectomy; type: in vivo, mouse
Experimental: (§1) A total of 32 mice underwent lymphedema surgery were randomly assigned into two groups, lymphedema group and rosiglitazone group (n=16). Rosiglitazone (Combi-Blocks, San Diego, USA) was dissolved in DMSO at the concentration of 25 mg/ml, and was diluted in corn oil to the final concentration of 2.5 mg/ml before injection. Mice in rosiglitazone group were intraperitoneally injected with rosiglitazone (10 mg/kg) twice a week from the day of surgery (day 0, 3, 7, 10, 14, 17). Mice in lymphedema group were injected with corn oil only at same time point. 8 mice in lymphedema group and rosiglitazone group were sacrificed on day 7 (n=8 per group), the rest of them were sacrificed on day 21 (n=8 per group). Another 18 mice were randomly divided into three groups, normal control group, lymphedema group, and rosiglitazone group, skin cells from these mice were isolated and used for flow cytometry analysis at day 7 (n=3 per group per staining).
Flow cytometry was performed using single-cell suspensions obtained from skin and subcutaneous tissue. 1×1 cm tissue harvested from the mice hindlimb were minced with scissors and digested by using collagenase type I (1 mg/ml) and dispase (2 mg/ml) at 37° C. on a shaker. All suspensions were filtered through 100 μm filters.
Cells were then stained with following conjugated antibodies: APC-PDGFRα (1:100), APC-PDGFRβ (1:100), HCS LipidTOX red neutral lipid stains (1:200), APC-CD45 (1:150), PE-CD3 (1:150), PerCP-Cy5-CD4 (1:150). Flow cytometry was performed on the Beckman Cytoflex FCM using CytExpert software (Beckman Coulter, CA, USA) and data were analyzed with FlowJo software (Tree Star; Ashland, OR).

[3] = test system: hindlimb secondary lymphedema after lymphadenectomy; experiment: Mouse hind limb lymphedema model (lymphadenectomy): limb measurements and histology; type: in vivo; details: rosiglitazone 10 mg/kg i.p. twice a week; for Dermal thickness / Overall skin thickness / Subdermal layer (fibroadipose tissue) thickness: H&E
Description: Evans blue (Sigma) (4% in PBS) was filtered and injected into mouse foot pad to stain lymph nodes in hind limb. Mouse hind limb secondary lymphedema was induced by surgical excision of the ipsilateral superficial inguinal, popliteal, deep inguinal lymph nodes, and the femoral lymphatic vessel. During surgical procedures, electrocauterization were used to prevent bleeding.
as §1
Sacrifice was performed via CO2 asphyxiation. Skin and muscle of hind limb were harvested, fixed in 10% formalin for 48 h followed by 70% ethanol for histological assessment. Formalin-fixed tissues were then dehydrated, embedded in paraffin, and sectioned with 5-micron-thickness.
Sections were stained either with Hematoxylin and Eosin (H&E) or Picrosirius Red according to standard protocol, and used to assess the overall skin thickness, dermal thickness, fibroadipose tissue thickness, and fibrosis, respectively. Quantitative histological analysis was performed using samples from day 7 and 21.
Images were captured by using Olympus BX53 (UCMAD3, T7, Japan) and all-in-one Keyence (Itasca, IL, USA) microscopes and assessed by ImageJ (version 1.52a; […]) by two independent researchers under blinded conditions. Fibrosis was assessed with the image thresholding plugin in ImageJ software, normalization is based on the length of the section (v1.52a; […]).

[4] = test system: adipose-derived mesenchymal stem cells (AdMSCs) treated with TGFβ1; experiment: Adipogenic and fibrogenic gene expression (RT-PCR) in AdMSCs treated with TGFβ1 with or without rosiglitazone; type: cell-based, mouse; details: TGFβ1 10 ng/ml + rosiglitazone 10 μM, 7 days, v. TGFβ1 without rosiglitazone
Experimental: Previous studies have established that PPARg agonists reverse the effects of pro-fibrotic transforming growth factor-beta (TGFβ) ligands.
Mice adipose-derived stem cells (ADSCs) were isolated from adult male C57BL/6J mice inguinal fat pad. ADSCs were cultured in DMEM/F12 (Sigma, Logan, UT) supplemented with 10% Fetal Bovine Serum (FBS) (Sigma) and antibiotics (penicillin and streptomycin, Hyclone). ADSCs were maintained at 37° C. under a 5% CO2 atmosphere. For rosiglitazone treatment experiment, ADSCs were treated with/without recombinant TGFβ1 (10 ng/ml) (Invitrogen, USA) and rosiglitazone (10 μM) for 7 days after seeded ([…]) in 6-well plates.
Total RNA was isolated from ADSCs using TRI reagent and RNA extraction kit (Zymo Research, Irvine, CA). First-strand cDNA was synthesized by using iScript RT-PCR mix (BioRad, Hercules, CA) according to user manual. SYBR green qPCR master Mix (BioRad, Hercules, CA), primers, and cDNA were mixed in a final reaction volume of 10 μl. Real time polymerase chain reaction (RT-PCR) were performed by using Applied Biosystems 7300 Fast Real-Time PCR System (AB) according to the manufacturer's instructions.

[5] = 1 cm×1 cm area of skin, day 7 after lymphadenectomy
[6] = 1 week after lymphadenectomy, normalized to uninjured hindlimb

Q: Which results are given for `CN(CCOc1ccc(CC2SC(=O)NC2=O)cc1)c1ccccn1` (stereo not shown) [rosiglitazone]?
A: Adverse effects [1]: fluid retention, heart failure, and fractures; Absolute number of PDGFRα+LipidTOX+ cells [2, 5]: 862; FSC^high PDGFRα+LipidTOX+ cells (cell size) [2, 5]: 73; PDGFRα+ cells, absolute count [2, 5]: 0.9×10^3; PDGFRα+LipidTOX+ cells as a proportion of total PDGFRα cells ([2]; day 7 after lymphadenectomy, results section): 86%; Share of PDGFRα+ cells that were LipidTOX+ ([2]; rosiglitazone-treated samples): over 90%; Normalized edema size [3, 6]: 1.08; Normalized hindlimb circumference [3, 6]: 1.31; Dermal thickness ([3]; 1 week): 438.54; Overall skin thickness ([3]; 1 week): 924.66 μm; Subdermal layer (fibroadipose tissue) thickness ([3]; 1 week): 486.12 μm; Normalized hindlimb fibrosis (picrosirius red) ([3]; 1 week): 0.130; Dermal thickness ([3]; 3 week): 403.76; Overall skin thickness ([3]; 3 week): 646.12 μm; Subdermal layer (fibroadipose tissue) thickness ([3]; 3 week): 242.36 μm; Normalized hindlimb fibrosis (picrosirius red) ([3]; 3 week): 0.128; Adipoq expression level [4]: 2.40; Col1a1 expression level [4]: 0.76; Ctgf expression level [4]: 0.80; Fn1 expression level [4]: 0.82; Lpl expression level [4]: 2.53; Pdgfra expression level [4]: 0.72
